Assay results as given in paper PMC11190158, “Study on the design, synthesis, and activity of anti-tumor staple peptides targeting MDM2/MDMX” (Frontiers in Chemistry, 2024).
Positions of bridges follow the written chain, without caps; N, C: chain ends. Non-standard residues stand in square brackets, D forms with d. Residues, ends and D or L forms follow the SMILES beside them. S5 = C=CCCC[C@](C)(N)C(=O)O

Tests used:
circular dichroism = conditions: phosphate buffer (PB); pH 7.2; ns °C; 10-50 (printed mmol/L, probably uM)
[1] = Circular dichroism, degree of helicity; format: physicochemical; conditions: CD, PB pH 7.2, 10–50 mmol/L peptide, ambient temperature, 1-mm path length, 185–255 nm
Description: The staple peptides were soluble in PB with a pH of 7.2 at a concentration of 10–50 mmol/L. CD experiments were performed using a Jasco J-715 Spectropolarimeter at ambient temperature. A quartz cuvette with a 1-mm path length was used for the spectrum collection (wavelength, 185–255 nm; step resolution, 0.0001 mm; speed, 1.2 μm/h; accumulations, 6; and bandwidth, 0.0001 mm). We calculated the helicity of each peptide using Eq.

tumor cells = assay: Cytotoxicity / cell viability assay (CCK-8), cell line not given; format: cell-based, human; conditions: for concentration at which in vitro anti-tumor activity was exhibited: compared to linear peptide M3-1, cell line not named
Description: Human colon cancer cell lines HCT116 p53^+/+, HCT116 p53^−/−, U87 MG, and U251 were maintained in McCoy’s 5A Medium supplemented with 10% heat-inactivated FCS and 1% penicillin–streptomycin at 37°C, 5% CO2, and under complete humidification conditions. The cells (3×10^3 cells/well) were inoculated in 96-well plates and treated with different concentrations of polypeptides for 72 h. The absorbance at 450 nm was then measured using the CCK-8 Kit, and the percentage of cell survival was calculated based on the ratio of the sample well to the reference well A450.

HCT116 p53^+/+ = conditions: 72 h
HCT116 p53^−/− = conditions: 72 h
U87 MG = conditions: for IC50: 72 h; for concentration at which in vitro anti-tumor activity was exhibited: U87 MG tumor cells, CCK-8
U251 = conditions: for IC50: 72 h; for concentration at which in vitro anti-tumor activity was exhibited: U251 tumor cells, CCK-8

Row | helicity [1] [%] | IC50 (HCT116 p53^+/+) [µM] | IC50 (HCT116 p53^−/−) [µM] | IC50 (U87 MG) [µM] | IC50 (U251) [µM] | SMILES | helicity (circular dichroism) [%] | concentration at which in vitro anti-tumor activity was exhibited (tumor cells) [µM] | concentration at which in vitro anti-tumor activity was exhibited (U87 MG) [µM] | concentration at which in vitro anti-tumor activity was exhibited (U251) [µM] | anti-proliferative / tumor suppressive activity (in words) (tumor cells; HCT116 p53^+/+, HCT116 p53−/−, U87 and U251 cell viability experiments, versus template straight-chain peptide)
1 | 42.36 | 118 | 54.8 | 19 | 22.6 | CSCC[C@H](NC(=O)[C@H](CC(C)C)NC(=O)[C@H](CCC(N)=O)NC(=O)[C@H](C)NC(=O)[C@H](Cc1c[nH]c2ccccc12)NC(=O)[C@H](Cc1ccc(O)cc1)NC(=O)[C@]1(C)CCCC=CCCC[C@](C)(NC(=O)[C@H](CCCCN)NC(C)=O)C(=O)N[C@@H]([C@@H](C)O)C(=O)N[C@@H](Cc2ccccc2)C(=O)N[C@@H](CC(C)C)C(=O)N1)C(=O)N[C@@H](CCC(N)=O)C(=O)N[C@@H](CCCCN)C(N)=O [SM3-1] (Ac-K[S5]TFL[S5]YWAQLMQK-NH2; staple 2-6) | 42.4 | 25 | 25 | 50 | 
2 | 5.85 | 34.4 | 24 | 30.7 | 48.7 | CSCC[C@H](NC(=O)[C@H](CC(C)C)NC(=O)[C@H](CCC(N)=O)NC(=O)[C@H](C)NC(=O)[C@H](Cc1c[nH]c2ccccc12)NC(=O)[C@]1(C)CCCC=CCCC[C@](C)(NC(=O)[C@H](CC(C)C)NC(=O)[C@H](CCCCN)NC(C)=O)C(=O)N[C@@H](Cc2ccccc2)C(=O)N[C@@H](CC(C)C)C(=O)N[C@@H](CCC(=O)O)C(=O)N1)C(=O)N[C@@H](CCC(N)=O)C(=O)N[C@@H](CCCCN)C(N)=O [SM3-2] (Ac-KL[S5]FLE[S5]WAQLMQK-NH2; staple 3-7) | 5.85 | 25 | 25 | 50 | significantly improved
3 | 38.10 | 15.6 | 25.8 | 47.5 | 93 | CSCC[C@H](NC(=O)[C@H](CC(C)C)NC(=O)[C@H](CCC(N)=O)NC(=O)[C@]1(C)CCCC=CCCC[C@](C)(NC(=O)[C@H](Cc2ccccc2)NC(=O)[C@@H](NC(=O)[C@H](CC(C)C)NC(=O)[C@H](CCCCN)NC(C)=O)[C@@H](C)O)C(=O)N[C@@H](CCC(=O)O)C(=O)N[C@@H](Cc2ccc(O)cc2)C(=O)N[C@@H](Cc2c[nH]c3ccccc23)C(=O)N1)C(=O)N[C@@H](CCC(N)=O)C(=O)N[C@@H](CCCCN)C(N)=O [SM3-3] (Ac-KLTF[S5]EYW[S5]QLMQK-NH2; staple 5-9) | 38.1 | 25 | 50 | 100 | 
